Measurements from patent US5843966A, “Piperidine derivatives” (Glaxo Group Limited, priority 1993, dated 1998).
Where a name gives a salt, the structure may show the parent alone.

Tested on: radiation-induced emesis in the ferret
Assay: Inhibition of radiation-induced emesis in the ferret
Assay type: in vivo
Conditions: compound administered 1.5 hours prior to irradiation
Experimental: In this model of emesis the onset of retching and vomiting occurs approximately 20 minutes after whole body irradiation (2 Grey.ident.200 Rads). The test compound is administered (e.g. i.p, p.o., i.v., s.c) immediately after irradiation and its effect on emesis determined by comparison with appropriate controls.
Alternatively, the test compounds may be administered before irradiation or before treatment with an emetogen, for example 1.5, 3 or 6 hours before irradiation.

Structure (SMILES): COc1ccc(-n2cnnn2)cc1CN[C@H]1CCCN[C@H]1c1ccccc1 [Example 2]
- inhibition of radiation-induced emesis (0.1 mg/kg s.c.): inhibited radiation-induced emesis

Structure (SMILES): COc1ccc(-n2nnnc2C(F)(F)F)cc1CN[C@H]1CCCN[C@H]1c1ccccc1 [Example 7, [2-Methoxy-5-(5-trifluoromethyl-tetrazol-1-yl)-benzyl]-(2S,3S]-2-phenyl-piperidin-3-yl)-amine dihydrochloride]
- inhibition of radiation-induced emesis (0.03 mg/kg s.c.): inhibited radiation-induced emesis
